For orientation: IC50 means the concentration that gives 50% inhibition.

Bounds are passed on as bounds.

In assay [1] the target is T1, GST-tagged Tankyrase-1 (1023-1327 aa) (Homo sapiens, UniProt O95271).
T1 construct: GST-tagged Tankyrase-1 (1023-1327 aa)
As to the kind of experiment: Tankyrase 1 autoparsylation HTRF enzyme assay. In kind it is biochemical. The note with it: HTRF autoparsylation, 90 min at 30° C; read-out: IC50 TNKS1 enzyme assay. As for the experimental part: Biochemical Activity Testing of Tankyrase 1 and 2: Autoparsylation Assay
The autoparsylation assay is run in two steps: the enzymatic reaction in which GST-tagged Tankyrase-1, resp Tankyrase-2 transferred biotinylated ADP-ribose to itself from biotinylated NAD as co-substrate and the detection reaction where a time resolved FRET between cryptate labelled anti-GST bound to the GST tag of the enzyme and Xlent® labelled-streptavidin bound the biotin-parsylation residue is analysed. The autoparsylation activity was detectable directly via the increase in HTRF signal.
The autoparsylation assay is performed as 384-well HTRF® (Cisbio, Codolet, France) assay format in Greiner low volume nb 384-well microtiter plates and is used for high throughput screen. 250 nM GST-tagged Tankyrase-1 (1023-1327 aa), respectively about 250 nM GST-tagged Tankyrase-2 (873-1166 aa) and 5 μM bio-NAD (Biolog, Life science Inst., Bremen, Germany) as co-substrate are incubated in a total volume of 5 μl (50 mM HEPES, 4 mM Mg-chloride, 0.05% Pluronic F-68, 1.4 mM DTT, 0.5% DMSO, pH 7.7) in the absence or presence of the test compound (10 dilution concentrations) for 90 min at 30° C. The reaction is stopped by the addition of 1 μl 50 mM EDTA solution. 2 μl of the detection solution (1.6 μM SA-Xlent® (Cisbio, Codolet, France), 7.4 nM Anti-GST-K® (Eu-labelled anti-GST, Cisbio, Codolet, France) in 50 mM HEPES, 800 mM KF, 0.1° A. BSA, 20 mM EDTA, 0.1% CHAPS, pH 7.0) are added. After 1 h incubation at room temperature the HTRF is measured with an Envision multimode reader (Perkin Elmer LAS Germany GmbH) at excitation wavelength 340 nm (laser mode) and emission wavelengths 615 nm and 665 nm. The ratio of the emission signals is determined. The full value used is the inhibitor-free reaction. The pharmacological zero value used is XAV-939 (Tocris) in a final concentration of 5 μM. The inhibitory values (IC50) are determined using either the program Symyx Assay Explorer® or Condosseo® from GeneData.
Background: TR-FRET usually uses a lanthanide donor and a delayed reading to cut background.

Another assay deals with T2, His-tagged Parp-1 (Homo sapiens, UniProt P09874).
T2 construct: purchased Enzo Life Sciences GmbH, Lörrach, Germany
As to the kind of experiment: PARP-1 autoparsylation HTRF assay. The note with it: 150 min at 23° C. In kind it is biochemical. The source says:
Description of the PARP1 Assay
Biochemical Activity Testing of PARP-1: Autoparsylation Assay
The autoparsylation assay is run in two steps: the enzymatic reaction in which His-tagged Parp-1 transfers biotinylated ADP-ribose/ADP-ribose to itself from biotinylated NAD/NAD as co-substrate and the detection reaction where a time resolved FRET between cryptate labelled anti-His antibody bound to the His tag of the enzyme and Xlent® labelled-streptavidin bound the biotin parsylation residue is analysed. The autoparsylation activity is detectable directly via the increase in HTRF signal.
The autoparsylation assay is performed as 384-well HTRF® (Cisbio, Codolet, France) assay format in Greiner low volume nb 384-well microtiter plates. 35 nM His-tagged Parp-1 (human, recombinant, Enzo Life Sciences GmbH, Lörrach, Germany) and a mixture of 125 nM bio-NAD (Biolog, Life science Inst., Bremen, Germany) and 800 nM NAD as co-substrate are incubated in a total volume of 6 μl (100 mM Tris/HCl, 4 mM Mg-chloride, 0.01% IGEPAL® CA630, 1 mM DTT, 0.5% DMSO, pH 8, 13 ng/μl activated DNA (BPS Bioscience, San Diego, US)) in the absence or presence of the test compound (10 dilution concentrations) for 150 min at 23° C. The reaction is stopped by the addition of 4 μl of the Stop/detection solution (70 nM SA-Xlent® (Cisbio, Codolet, France), 2.5 nM Anti-His-K® (Eu-labelled anti-His, Cisbio, Codolet, France) in 50 mM HEPES, 400 mM KF, 0.1% BSA, 20 mM EDTA, pH 7.0). After 1 h incubation at room temperature the HTRF is measured with an Envision multimode reader (Perkin Elmer LAS Germany GmbH) at excitation wavelength 340 nm (laser mode) and emission wavelengths 615 nm and 665 nm. The ratio of the emission signals is determined. The full value used is the inhibitor-free reaction. The pharmacological zero value used is Olaparib (LClabs, Woburn, US) in a final concentration of 1 μM. The inhibitory values (IC50) are determined using either the program Symyx Assay Explorer® or Condosseo® from GeneData.

T2 sequence (P09874 whole entry): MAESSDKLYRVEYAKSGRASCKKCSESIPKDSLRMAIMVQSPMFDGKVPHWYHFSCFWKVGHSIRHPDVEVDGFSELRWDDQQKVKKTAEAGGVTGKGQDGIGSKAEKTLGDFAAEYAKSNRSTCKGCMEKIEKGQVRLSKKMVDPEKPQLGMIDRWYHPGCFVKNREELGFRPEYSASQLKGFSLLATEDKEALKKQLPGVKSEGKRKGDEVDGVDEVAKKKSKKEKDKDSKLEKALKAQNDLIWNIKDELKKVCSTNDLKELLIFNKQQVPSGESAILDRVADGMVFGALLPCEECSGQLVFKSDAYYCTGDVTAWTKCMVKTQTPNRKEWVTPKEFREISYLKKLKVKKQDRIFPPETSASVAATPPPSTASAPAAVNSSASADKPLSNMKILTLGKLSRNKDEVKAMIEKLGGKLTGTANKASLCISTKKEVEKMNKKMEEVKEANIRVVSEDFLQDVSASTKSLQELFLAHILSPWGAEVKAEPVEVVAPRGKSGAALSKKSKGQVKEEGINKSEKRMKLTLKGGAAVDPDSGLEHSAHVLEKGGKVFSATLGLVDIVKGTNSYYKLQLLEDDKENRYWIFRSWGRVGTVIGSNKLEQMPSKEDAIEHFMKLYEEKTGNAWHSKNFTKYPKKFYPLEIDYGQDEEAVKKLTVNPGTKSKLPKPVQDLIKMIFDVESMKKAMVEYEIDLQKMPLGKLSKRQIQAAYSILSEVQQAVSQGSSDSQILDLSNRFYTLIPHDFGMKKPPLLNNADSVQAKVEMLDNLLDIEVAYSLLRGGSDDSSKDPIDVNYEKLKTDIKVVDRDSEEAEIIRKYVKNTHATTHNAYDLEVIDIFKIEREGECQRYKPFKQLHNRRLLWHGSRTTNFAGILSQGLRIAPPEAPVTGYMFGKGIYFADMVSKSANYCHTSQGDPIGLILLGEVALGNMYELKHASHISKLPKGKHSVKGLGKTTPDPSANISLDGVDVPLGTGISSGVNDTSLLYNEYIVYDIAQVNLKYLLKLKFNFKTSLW
T1 sequence (O95271 1023-1327): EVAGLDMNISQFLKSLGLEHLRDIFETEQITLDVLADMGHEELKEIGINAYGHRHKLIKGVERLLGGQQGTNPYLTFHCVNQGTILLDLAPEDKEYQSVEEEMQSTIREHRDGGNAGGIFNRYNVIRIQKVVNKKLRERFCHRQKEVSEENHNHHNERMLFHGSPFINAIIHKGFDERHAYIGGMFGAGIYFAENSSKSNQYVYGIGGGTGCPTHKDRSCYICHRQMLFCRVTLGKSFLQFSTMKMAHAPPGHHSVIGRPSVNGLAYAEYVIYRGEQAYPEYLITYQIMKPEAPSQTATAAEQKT

As for `O=C(Cc1ccccc1)Nc1nncc2ccccc12` [Compound A1, 2-phenyl-N-phthalazin-1-yl-acetamide], the results for the IC50 (in assay [1]; at His-tagged Parp-1) were under 0.3 µM and 3 to 50 µM, respectively.
Take `COc1cccc(CC(=O)Nc2nncc3ccccc23)c1` [Compound A2, 2-(3-methoxyphenyl)-N-phthalazin-1-yl-acetamide]: the IC50 lay in the range of 0.3 to 3 µM in assay [1] and 3 to 50 µM against His-tagged Parp-1.
Consider `COc1ccc(CC(=O)Nc2nncc3ccccc23)cc1` [Compound A3, 2-(4-methoxyphenyl)-N-phthalazin-1-yl-acetamide], for which the IC50 was under 0.3 µM in assay [1] and 3 to 50 µM against His-tagged Parp-1.
Regarding `CCOc1ccc(CC(=O)Nc2nncc3ccccc23)cc1` [Compound A4, 2-(4-ethoxyphenyl)-N-phthalazin-1-yl-acetamide], the half-maximal inhibitory concentration (IC50) is under 0.3 µM in assay [1] and 3 to 50 µM against His-tagged Parp-1.
Regarding `O=C(CCC1CCCC1)Nc1nncc2ccccc12` [Compound A15, 3-cyclopentyl-N-phthalazin-1-yl-propionamide], the figures for the IC50 (in assay [1]; at His-tagged Parp-1) were under 0.3 µM and 3 to 50 µM, respectively.
For `O=C(CCc1ccccc1Cl)Nc1nncc2ccccc12` [Compound A16, 3-(2-chloro-phenyl)-N-phthalazin-1-yl-propionamide], in that order: under 0.3 µM and 3 to 50 µM.
In the same order, the values of `Cc1cccc2cnnc(NC(=O)Cc3ccccc3)c12` [Compound A18, N-(8-methyl-phthalazin-1-yl)-2-phenyl-acetamide] are 0.3 to 3 µM and 0.3 to 3 µM.
In the same order, the values of `COc1ccc(CC(=O)Nc2nncc3cccc(C)c23)cc1` [Compound A20, 2-(4-methoxy-phenyl)-N-(8-methyl-phthalazin-1-yl)-acetamide] are 0.3 to 3 µM and 0.3 to 3 µM.

The values above are taken from US9751842B2, “Phthalazine derivatives” (Merck Patent GmbH, priority 2013, dated 2017).
